According to patent US9029414B2, “Triterpenoid compounds and methods of use thereof” (Biotechnology Research Corporation, priority 2008, dated 2015):

What was measured:
[1] = tested on: MOG-induced IL-17 in primary splenocytes; assay: IL-17 Quantikine ELISA in primary splenocytes of EAE mice; type: cell-based; settings: exogenous compound 30 μM; for decrease of IL-17 in response to exogenous compound: splenocytes of compound-treated EAE mice (100 mg/kg); for reduction in the amount of IL-17: splenocytes of vehicle-treated EAE mice, MOG 25 μg/mL, 48 hrs
Protocol: On day 21, EAE mice were sacrificed by cervical dislocation and spleens were removed aseptically. The removed spleens were then cut with sterilized scissors and strained through […] mesh (BD Bioscience) with a plunger of 5 mL syringe (BD Bioscience) in 9 mL of RPMI 1640 (Invitrogen) with 100 U/mL penicillin and 100 μg/mL streptomycin (Sigma). The cell mixture was then added to 9 mL of Lympholyte (Cedarlane Laboratories) for gradient separation of splenocytes from red bloods cells by centrifugation at 1500 g for 20 min. After the centrifugation, the lympholyte layer containing splenocytes were carefully removed and washed with 10 mL of RPMI 1640 at 800 g for 10 min for three times. The isolated splenocytes were seeded onto different plate format and cultured with RPMI 1640 medium (Invitrogen) supplement with 10% heat inactivated fetal bovine serum (Invitrogen) and 100 U/mL penicillin and 100 μg/mL streptomycin at 37° C. CO2 incubator.
Splenocytes from EAE mice were cultured at the density of 1×10^6 cells in 12-well plates (Falcon) in the absence or presence of the MOG peptide (25 μg/mL) (Hooke Laboratories), DA001 and DA021 (30 μM) with RPMI 1640 medium (Invitrogen) supplement with 10% heat inactivated fetal bovine serum (Invitrogen) and 100 U/mL penicillin and 100 μg/mL streptomycin (Sigma) for 48 h. After 48 h, the supernatants were collected by pelleting the cells at 300 g for 10 min at 4° C. 50 μL of the each sample was added to the microtiter plate provided by the manufacturer of the Quantikine ELISA assay kit (R and D systems). Additional 50 μL of assay diluents buffer was added and incubated at room temperature for 2 h. […] Subsequently, 100 μL of stop solution was added to each well and the plate was read in 450 nm wavelength on a microplate reader (Dynex Revelation 2.2).
(§1) Cells were cultured in RPMI 1640 medium supplement with 10% heat inactivated fetal bovine serum and penicillin/streptomycin, in the absence or presence of MOG (25 μg/mL, Ex) with or without DA001 or DA021 (30 μM, Ex). […] The amount of IL-17 was calculated based on the standard curve established during the assay. […]
as §1, with “DA001” for “DA001 or DA021”
as §1, with “without” for “without DA001 or”

[2] = tested on: C57BL/6 mice immunized with MOG; assay: Experimental autoimmune encephalomyelitis (EAE) behavioral scores; type: in vivo; settings: 100 mg/kg oral daily from day of immunization
Protocol: FIG. 15 illustrates that DA001 improves the behavioral scores of mice with experimental autoimmune encephalomyelitis. C57BL/6 mice were immunized subcutaneously at both sides of their hind limbs with myelin oligodendrocyte glycoprotein (MOG)/Complete Freund's Adjuvant (CFA) kit (Hooke Laboratories) and performed as indicated in the manufacturer's instruction. Albumin/CFA kit (Hooke Laboratories) were used as an immunization control. Oral administration of DA001 at 100 mg/kg was given daily starting from the day of immunization. The vehicle (water) was given to mice injected with MOG or albumin daily via oral administration. Animals were weighed and monitored daily and behavioral impairment was quantified based on the clinical scale. The graph presented here is a composite of four separate EAE trials. **=p≦0.01.
FIG. 16 illustrates that DA002 improves the behavioral scores of mice with experimental autoimmune encephalomyelitis. C57BL/6 mice were immunized subcutaneously at both sides of their hind limbs with myelin oligodendrocyte glycoprotein (MOG)/Complete Freund's Adjuvant (CFA) kit (Hooke Laboratories) and performed as indicated in the manufacturer's instruction. […] Animals were weighed and monitored daily and behavioral impairment was quantified based on the clinical scale. *=p≦0.05.
C57BL/6 mice were immunized subcutaneously at both sides of their hind limbs with myelin oligodendrocyte glycoprotein (MOG)/Complete Freund's Adjuvant (CFA) kit (Hooke Laboratories) and performed as in manufacturer's instruction. […] Animals were weighed and monitored daily and behavioral impairment was quantified based on the clinical scale. […]
On day 0, six-week old male C57BL/6 mice (Hong Kong University of Science and Technology, Animal Care facility) were immunized with 100 μg of myelin oligodendrocyte glycoprotein peptide (MOG35-55)/complete Freund's Adjuvant (CFA) emulsion kit (Hooke Laboratories) was injected subcutaneously at both sides of the tail base. […] The animals were also weighed and the neurological impairment was quantified daily based on the previously published criteria. […]

SMILES: C=C(C)[C@@H]1CC[C@]2(/C=N/O)CC[C@]3(C)C(CCC4[C@@]5(C)CCC(=O)[C@@](C)(CO)[C@@H]5CC[C@]43C)C12 (stereo partly drawn) [DA021]
- decrease of IL-17 in response to exogenous compound [1]: 89%
- reduction in the amount of IL-17 [1]: 68%
- EAE scores vs vehicle-treated EAE mice [2]: marked decrease in the EAE scores

SMILES: C=C(C)[C@@H]1CC[C@]2(C(=O)O)CC[C@]3(C)C(CC[C@@H]4[C@@]5(C)CC[C@H](O[C@@H]6OC[C@H](O)[C@H](O)[C@H]6O[C@@H]6O[C@@H](C)[C@H](O)[C@@H](O)[C@H]6O)[C@@](C)(CO)[C@@H]5CC[C@]43C)[C@@H]12 (stereo partly drawn) [DA001, 3-O-[α-L-rhamnopyranosyl-(1→2)-α-L-arabinopyranosyl]-3,23-dihydroxy-20(29)-lupen-28-oic acid]
- decrease of IL-17 in response to exogenous compound [1]: 51%
- reduction in the amount of IL-17 [1]: 65%
- EAE scores vs vehicle-treated EAE mice [2]: marked decrease in EAE scores
